# According to US9850283B2, “Macrocyclic inhibitors of the PD-1/PD-L1 and CD80(B7-1)/PD-L1 protein/protein interactions” (BRISTOL-MYERS SQUIBB COMPANY, priority 2013, dated 2017):
# Like-named read-outs stand apart in the source and are kept apart here. Starred links: 1 amine or outer side, 2 acyl side, 3 side chain; linkers in the order of their positions; H or OH if unused. Positions of bridges follow the written chain, without caps; N, C: chain ends. Non-standard residues stand in square brackets, D forms with d. Residues, ends and D or L forms follow the SMILES beside them. ξ: configuration not given here. *: point of attachment. X7 = COc1ccc(-c2[nH]c3ccccc3c2C[C@H](N[*:1])C(=O)[*:2])cc1; Phe(3,4-(OMe)2) = COc1ccc(C[C@H](N)C(=O)O)cc1OC; Phe(3,4-Me2) = Cc1ccc(C[C@H](N)C(=O)O)cc1C; Bta = N[C@@H](Cc1csc2ccccc12)C(=O)O; Hyp = O=C(O)[C@@H]1C[C@@H](O)CN1; dNMeNle = CCCC[C@@H](NC)C(=O)O; NMeNle = CCCC[C@H](NC)C(=O)O; NMeM = CN[C@@H](CCSC)C(=O)O; ξR = N=C(N)NCCCC(N)C(=O)O; NMeA = CN[C@@H](C)C(=O)O; dDap = NC[C@@H](N)C(=O)O; Dab = NCC[C@H](N)C(=O)O; Dap = NC[C@H](N)C(=O)O; Bz = O=C(c1ccccc1)*; ξP = O=C(O)C1CCCN1; ξC = NC(CS)C(=O)O
# What was measured:
# [1] = target: T1, LK35.2-hPD-L1 cells / PE-labeled PD-1-Ig (Homo sapiens, UniProt Q9NZQ7); assay: LK35.2-hPD-L1 cell binding high-content screening assay; assay type: cell-based; conditions: cluster symbol
# T1 construct: expressed in transfected cells; host or cells: LK35.2 mouse B cell line
# How it was run: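 Binding of PE-conjugated human PD-1-Ig (1 nM final) to human PD-L1 stably expressed on a mouse B-cell line (LK35.2) was measured by high-content imaging after washes. Compound and labeled PD-1-Ig were co-incubated 1 h at 37 °C with cells in RPMI/10% FCS.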
# Human PD-L1/PD-1 = target: T2, Human PD-L1/PD-1 (Homo sapiens, UniProt Q9NZQ7); assay: HTRF PD-1-Ig/PD-L1-His binding assay (human PD-L1); conditions: cluster symbol
# T2 construct: made in house; host or cells: HEK293T
# How it was run: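 HTRF read-out: Eu cryptate anti-Ig mAb 1 nM final, APC anti-His mAb 20 nM final, added over the binding reaction. Proteins were PD-1-Ig and PD-L1-His ectodomain fusions. Buffer was dPBS, 0.1% BSA, 0.05% Tween-20.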
# [2] = cell binding assay, cell line not given, read-out: CBA IC50 cluster
# [3] = cell line of CBA not given (LK35.2-hPD-L1 or 293T-hPD-L1), read-out: CBA IC50 cluster
# T2 sequence (Q9NZQ7 with tags, fused parts or gaps): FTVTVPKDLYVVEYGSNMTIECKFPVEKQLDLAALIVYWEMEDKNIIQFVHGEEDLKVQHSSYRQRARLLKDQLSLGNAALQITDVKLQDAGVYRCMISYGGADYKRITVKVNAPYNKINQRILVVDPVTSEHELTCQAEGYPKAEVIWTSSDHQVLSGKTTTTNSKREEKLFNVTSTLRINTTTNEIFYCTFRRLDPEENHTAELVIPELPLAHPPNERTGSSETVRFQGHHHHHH
# T1 sequence (Q9NZQ7 19-290): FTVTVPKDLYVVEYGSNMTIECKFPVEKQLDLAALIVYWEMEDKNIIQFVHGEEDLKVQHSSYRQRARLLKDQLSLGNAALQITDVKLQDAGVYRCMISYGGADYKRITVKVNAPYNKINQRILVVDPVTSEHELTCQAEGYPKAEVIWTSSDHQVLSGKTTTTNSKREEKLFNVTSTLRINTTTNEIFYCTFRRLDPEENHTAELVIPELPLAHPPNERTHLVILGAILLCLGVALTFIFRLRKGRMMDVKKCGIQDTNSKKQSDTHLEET
SMILES,"IC50 [1, 2]",IC50 (Human PD-L1/PD-1; read-out: HTRF IC50 cluster),"IC50 [1, 3]","IC50 ([1]; CBA IC50 cluster, cell line of CBA not given (LK35.2-hPD-L1 or 293T-hPD-L1))",IC50 (Human PD-L1/PD-1; HTRF IC50 cluster)
CCCC[C@H]1C(=O)N(C)[C@@H](CCCC)C(=O)N[C@@H](CCCN)C(=O)N[C@H](C(=O)NCC(N)=O)CSCC(=O)N[C@@H](Cc2ccc(O)cc2)C(=O)N2CCCC[C@H]2C(=O)N[C@@H](CC(N)=O)C(=O)N2CCC[C@H]2C(=O)N[C@@H](Cc2cnc[nH]2)C(=O)N[C@@H](CC(C)C)C(=O)N2C[C@H](O)C[C@H]2C(=O)N[C@@H](Cc2c[nH]c3ccccc23)C(=O)N[C@@H](CO)C(=O)N[C@@H](Cc2c[nH]c3ccccc23)C(=O)N1C [Example 1177],–,0.385 to 6.74 nM,0.158 to 4.71 nM,–,–
"CCCC[C@H]1C(=O)N(C)[C@@H](CCCC)C(=O)N[C@@H](CCCNC(=N)N)C(=O)N[C@H](C(=O)NCC(N)=O)CSCC(=O)N[C@@H](Cc2ccc(C)c(C)c2)C(=O)N(C)[C@@H](C)C(=O)N[C@@H](CC(N)=O)C(=O)N2CCC[C@H]2C(=O)N[C@@H](Cc2cnc[nH]2)C(=O)N[C@@H](CC(C)C)C(=O)N2CCC[C@H]2C(=O)N[C@@H](Cc2c[nH]c3ccccc23)C(=O)N[C@@H](CO)C(=O)N[C@@H](Cc2c[nH]c3ccccc23)C(=O)N1C [Example 7015] ({CH2CO}-[Phe(3,4-Me2)][NMeA]NPHLPWSW[NMeNle][NMeNle]RCG-NH2; thioether N-14)",4.78 to 72.9 nM,6.76 to 30.3 nM,–,–,–
CCCC[C@H]1C(=O)N(C)[C@@H](CCCC)C(=O)NC(CCCNC(=N)N)C(=O)N[C@H](C(=O)NCC(N)=O)CSCC(=O)N[C@@H](Cc2ccc(O)cc2)C(=O)N(C)[C@@H](C)C(=O)N[C@@H](CC(N)=O)C(=O)N2CCC[C@H]2C(=O)N[C@@H](CN)C(=O)N[C@@H](CC(C)C)C(=O)N2C[C@H](O)C[C@H]2C(=O)N[C@@H](Cc2c[nH]c3ccccc23)C(=O)N[C@@H](CO)C(=O)N[C@@H](Cc2c(-c3ccc(OC)cc3)[nH]c3ccccc23)C(=O)N1C (stereo partly drawn) [Example 7006] ({CH2CO}-Y[NMeA]NP[Dap]L[Hyp]WS[X7][NMeNle][NMeNle][ξR]CG-NH2; thioether N-14),0.158 to 4.71 nM,0.385 to 6.74 nM,–,–,–
"CCCC[C@H]1C(=O)N(C)[C@@H](CCCC)C(=O)N[C@@H](CCCNC(=N)N)C(=O)N[C@H](C(=O)NCC(N)=O)CSCC(=O)N[C@@H](Cc2ccc(OC)c(OC)c2)C(=O)N(C)[C@@H](C)C(=O)N[C@@H](CC(N)=O)C(=O)N2CCC[C@H]2C(=O)N[C@@H](CN)C(=O)N[C@@H](CC(C)C)C(=O)N2C[C@H](O)C[C@H]2C(=O)N[C@@H](Cc2c[nH]c3ccccc23)C(=O)N[C@@H](CO)C(=O)N[C@@H](Cc2c[nH]c3ccccc23)C(=O)N1C [Example 7040] ({CH2CO}-[Phe(3,4-(OMe)2)][NMeA]NP[Dap]L[Hyp]WSW[NMeNle][NMeNle]RCG-NH2; thioether N-14)",4.78 to 72.9 nM,0.385 to 6.74 nM,–,–,–
CCCC[C@@H]1C(=O)N(C)[C@H](CCCC)C(=O)N[C@@H](C)C(=O)N[C@@H](C(=O)NCC(N)=O)CSCC(=O)N[C@@H](Cc2ccc(O)cc2)C(=O)N2CCCC2C(=O)N[C@H](CC(=O)O)C(=O)N2CCC[C@H]2C(=O)N[C@H](CN)C(=O)N[C@@H](CCC(=O)O)C(=O)N2CCCC2C(=O)N[C@H](Cc2c[nH]c3ccccc23)C(=O)N[C@@H](CCN)C(=O)N[C@@H](Cc2c[nH]c3ccccc23)C(=O)N1C (stereo partly drawn) [Example 1209] ({CH2CO}-Y[ξP][dD]P[dDap]E[ξP][dW][Dab]W[dNMeNle][dNMeNle]A[dC]G-NH2; thioether N-14),–,6.76 to 30.3 nM,4.78 to 72.9 nM,–,–
CCCC[C@H]1C(=O)N(C)[C@@H](CCCC)C(=O)N[C@@H](CCCNC(=N)N)C(=O)N[C@H](C(=O)NCC(N)=O)CSCC(=O)N[C@@H](Cc2ccccc2)C(=O)N(C)[C@@H](C)C(=O)N[C@@H](CC(N)=O)C(=O)N2CCC[C@H]2C(=O)N[C@@H](Cc2c[nH]cn2)C(=O)N[C@@H](CC(C)C)C(=O)N[C@@H](CCNC(=O)c2ccccc2)C(=O)N[C@@H](Cc2c[nH]c3ccccc23)C(=O)N[C@@H](CO)C(=O)N[C@@H](Cc2c[nH]c3ccccc23)C(=O)N1C [Example 1022] ({CH2CO}-F[NMeA]NPHL[Dab](Bz)WSW[NMeNle][NMeNle]RCG-NH2; thioether N-14),–,–,–,> 74.3 nM,> 30.5 nM
CCCC[C@H]1C(=O)N(C)[C@@H](CCCC)C(=O)N[C@@H](CCCNC(=N)N)C(=O)N[C@H](C(=O)NCC(N)=O)C/C=C/C(=O)N[C@@H](Cc2ccc(O)cc2)C(=O)N(C)[C@@H](C)C(=O)N[C@@H](CC(N)=O)C(=O)N2CCCC2C(=O)N[C@@H](CN)C(=O)N[C@@H](CC(C)C)C(=O)N2C[C@H](O)C[C@H]2C(=O)N[C@@H](Cc2c[nH]c3ccccc23)C(=O)N[C@@H](CO)C(=O)N[C@@H](Cc2c[nH]c3ccccc23)C(=O)N1C (stereo partly drawn) [Example 7013],4.78 to 72.9 nM,6.76 to 30.3 nM,–,–,–

# Now from value to molecule, other results behind:
"IC50 [1, 2]",IC50 (Human PD-L1/PD-1; read-out: HTRF IC50 cluster),"IC50 [1, 3]",SMILES,"IC50 ([1]; CBA IC50 cluster, cell line of CBA not given (LK35.2-hPD-L1 or 293T-hPD-L1))",IC50 (Human PD-L1/PD-1; HTRF IC50 cluster)
0.158 to 4.71 nM,0.385 to 6.74 nM,–,CCCC[C@H]1C(=O)N[C@@H](CCCNC(=N)N)C(=O)NC(C(=O)NCC(N)=O)CSCC(=O)N[C@@H](Cc2ccc(O)cc2)C(=O)N(C)[C@@H](C)C(=O)N[C@@H](CC(N)=O)C(=O)N2CCC[C@H]2C(=O)N[C@@H](CN)C(=O)N[C@@H](CC(C)C)C(=O)N2CCC[C@H]2C(=O)N[C@@H](Cc2c[nH]c3ccccc23)C(=O)N[C@@H](CO)C(=O)N[C@@H](Cc2csc3ccccc23)C(=O)N(C)[C@@H](CCSC)C(=O)N1C (stereo partly drawn) [Example 9090] ({CH2CO}-Y[NMeA]NP[Dap]LPWS[Bta][NMeM][NMeNle]R[ξC]G-NH2; thioether N-14),–,–
0.158 to 4.71 nM,0.385 to 6.74 nM,–,CCCC[C@H]1C(=O)N[C@@H](CCCNC(=N)N)C(=O)NC(C(=O)NCC(N)=O)CSCC(=O)N[C@@H](Cc2ccc(O)cc2)C(=O)N(C)[C@@H](C)C(=O)N[C@@H](CC(N)=O)C(=O)N2CCC[C@H]2C(=O)N[C@@H](Cc2cnc[nH]2)C(=O)N[C@@H](CC(C)C)C(=O)N2C[C@H](O)C[C@H]2C(=O)N[C@@H](Cc2c[nH]c3ccccc23)C(=O)N[C@@H](CO)C(=O)N[C@@H](Cc2c[nH]c3ccccc23)C(=O)N(C)[C@@H](COCC)C(=O)N1C (stereo partly drawn) [Example 9046],–,–
4.78 to 72.9 nM,6.76 to 30.3 nM,–,CCCC[C@H]1C(=O)N[C@@H](C)C(=O)NC(C(=O)NCC(N)=O)CSCC(=O)N[C@@H](Cc2ccc(O)cc2)C(=O)N(C)[C@@H](C)C(=O)N[C@@H](CC(N)=O)C(=O)N2CCC[C@H]2C(=O)N[C@@H](CN)C(=O)N[C@@H](CC(C)C)C(=O)N2CCC[C@H]2C(=O)N[C@@H](Cc2c[nH]c3ccccc23)C(=O)N[C@@H](CO)C(=O)N[C@@H](Cc2c[nH]c3ccccc23)C(=O)N(C)[C@@H](CCSC)C(=O)N1C (stereo partly drawn) [Example 9093] ({CH2CO}-Y[NMeA]NP[Dap]LPWSW[NMeM][NMeNle]A[ξC]G-NH2; thioether N-14),–,–
0.158 to 4.71 nM,6.76 to 30.3 nM,–,CCCC[C@H]1C(=O)N(C)[C@@H](CCCC)C(=O)N[C@@H](CCCNC(=N)N)C(=O)NC(C(=O)N[C@@H](CO)C(N)=O)CSCC(=O)N[C@@H](Cc2ccc(O)cc2)C(=O)N(C)[C@@H](C)C(=O)N[C@@H](CC(N)=O)C(=O)N2CCC[C@H]2C(=O)N[C@@H](Cc2cnc[nH]2)C(=O)N[C@@H](CO)C(=O)N2C[C@H](O)C[C@H]2C(=O)N[C@@H](Cc2c[nH]c3ccccc23)C(=O)N[C@@H](CO)C(=O)N[C@@H](Cc2csc3ccccc23)C(=O)N1C (stereo partly drawn) [Example 9078] ({CH2CO}-Y[NMeA]NPHS[Hyp]WS[Bta][NMeNle][NMeNle]R[ξC]S-NH2; thioether N-14),–,–
4.78 to 72.9 nM,0.385 to 6.74 nM,–,CCCC[C@H]1C(=O)N[C@@H](C)C(=O)NC(C(=O)NCC(N)=O)CSCC(=O)N[C@@H](Cc2ccc(O)cc2)C(=O)N(C)[C@@H](C)C(=O)N[C@@H](CC(N)=O)C(=O)N2CCC[C@H]2C(=O)N[C@@H](CN)C(=O)N[C@@H](CC(C)C)C(=O)N2C[C@H](O)C[C@H]2C(=O)N[C@@H](Cc2c[nH]c3ccccc23)C(=O)N[C@@H](CO)C(=O)N[C@@H](Cc2c[nH]c3ccccc23)C(=O)N(C)[C@@H](CCSC)C(=O)N1C (stereo partly drawn) [Example 9095],–,–
